System: human immunodeficiency virus type 1 (HIV-1)
Assay: microbe, parasite or virus in culture
Assay type: cell-based
Conditions: Human immunodeficiency virus 1, HeLa, 48 h, HIV-1 luciferase reporter, HeLa cells, 48 hours after infection

SMILES | EC50 [nM]
COc1cc2c(cc1Oc1ccc(C(F)(F)F)cc1N)c(=O)c(C(=O)O)cn2[C@H](CO)C(C)(C)C [Example 29G] | > 100
COc1nc2c(cc1Cc1cccc(Cl)c1F)c(=O)c(C(=O)O)cn2[C@H](CO)CC(C)C [Example 1K] | < 10
CC(C)[C@@H](CO)n1cc(C(=O)O)c(=O)c2nc(Cc3ccc(F)c(F)c3)ccc21 [Example 8B, 6-(3,4-Difluoro-benzyl)-1-((S)-1-hydroxymethyl-2-methyl-propyl)-4-oxo-1,4-dihydro-[1.5]naphthyridine-3-carboxylic acid] | > 100
COc1nc2c(cc1NCc1ccc(Cl)c(F)c1)c(=O)c(C(=O)O)cn2[C@H](CO)C(C)C [Example 20H, (S)-6-(4-chloro-3-fluorobenzylamino)-1-(1-hydroxy-3-methylbutan-2-yl)-7-methoxy-4-oxo-1,4-dihydro-1,8-naphthyridine-3-carboxylic acid] | > 100
COc1cc2c(cc1NCc1c(F)cc(F)cc1F)c(=O)c(C(=O)O)cn2[C@H](CO)C(C)C [Example 21B, (S)-1-(1-hydroxy-3-methylbutan-2-yl)-7-methoxy-4-oxo-6-(2,4,6-trifluorobenzylamino)-1,4-dihydroquinoline-3-carboxylic acid] | < 10
COc1nc2c(cc1-c1cccc(C#N)c1)c(=O)c(C(=O)O)cn2[C@H](CO)C(C)C [Example 17F] | > 100
COc1nc2c(cc1NCc1cc(F)cc(F)c1F)c(=O)c(C(=O)O)cn2[C@H](CO)C(C)C [Example 20FF, (S)-1-(1-hydroxy-3-methylbutan-2-yl)-7-methoxy-4-oxo-6-(2,3,5-trifluorobenzylamino)-1,4-dihydro-1,8-naphthyridine-3-carboxylic acid] | > 100
CC(C)[C@@H](CO)n1cc(C(=O)O)c(=O)c2cc(Cc3cccc(Cl)c3F)c(F)nc21 [Example 2KK] | 10 to 100
COc1nc2c(cc1Cc1cccc(Cl)c1F)c(=O)c(C(=O)O)cn2[C@@H](C)CO [Example 1F] | > 100
COc1nc2c(cc1-c1cccc(OCc3ccccc3)c1)c(=O)c(C(=O)O)cn2[C@H](CO)C(C)C [Example 17L] | > 100
COc1nc2c(cc1NCCc1ccc(F)cc1)c(=O)c(C(=O)O)cn2[C@H](CO)C(C)C [Example 20T, (S)-6-(4-fluorophenethylamino)-1-(1-hydroxy-3-methylbutan-2-yl)-7-methoxy-4-oxo-1,4-dihydro-1,8-naphthyridine-3-carboxylic acid] | > 100
COc1cc2c(cc1OCc1cccc(Cl)c1F)c(=O)c(C(=O)O)cn2[C@H](CO)C(C)(C)C [Example 29A, (S)-6-(3-chloro-2-fluorobenzyloxy)-1-(1-hydroxy-3,3-dimethylbutan-2-yl)-7-methoxy-4-oxo-1,4-dihydroquinoline-3-carboxylic acid] | > 100
COc1nc2c(cc1Nc1ccc(F)c(Cl)c1)c(=O)c(C(=O)O)cn2[C@H](CO)C(C)C [Example 20RR, (S)-6-(3-chloro-4-fluorophenylamino)-1-(1-hydroxy-3-methylbutan-2-yl)-7-methoxy-4-oxo-1,4-dihydro-1,8-naphthyridine-3-carboxylic acid] | > 100
O=C(O)c1cn(CCO)c2ncc(Cc3cccc(Cl)c3F)cc2c1=O [Example 4D] | > 100
COc1nc2c(cc1NCc1cccc(C(F)(F)F)c1)c(=O)c(C(=O)O)cn2[C@H](CO)C(C)C [Example 20X, (S)-1-(1-hydroxy-3-methylbutan-2-yl)-7-methoxy-4-oxo-6-(3-(trifluoromethyl)benzylamino)-1,4-dihydro-1,8-naphthyridine-3-carboxylic acid] | > 100
CC(C)(C)[C@@H](CO)n1cc(C(=O)O)c(=O)c2cc(Cc3cccc(Cl)c3F)c(OCCO)nc21 [Example 2E] | < 10
CCC(C)C(CO)n1cc(C(=O)O)c(=O)c2cc(Cc3cccc(Cl)c3F)ncc21 (centres unmarked) [Example 5H] | 10 to 100
C[C@H](CO)n1cc(C(=O)O)c(=O)c2cc(Cc3cccc(Cl)c3F)ncc21 [Example 5K] | > 100
CCCn1cc(C(=O)OC(=O)c2ccccc2)c(=O)c2c(NC(C)=O)nc(SC)nc21 [Example 7D] | > 100
CC(C)(C)[C@@H](CO)n1cc(C(=O)O)c(=O)c2cc(Cc3cccc(Cl)c3F)c(N3CC[C@@H](O)C3)nc21 [Example 2W] | 10 to 100
CC(C)(C)[C@@H](CO)n1cc(C(=O)O)c(=O)c2cc(Cc3cccc(Cl)c3F)c(NCCCO)nc21 [Example 2S] | 10 to 100
COc1nc2c(cc1NCc1ccc(C)cc1)c(=O)c(C(=O)O)cn2[C@H](CO)C(C)C [Example 20A, (S)-1-(1-hydroxy-3-methylbutan-2-yl)-7-methoxy-6-(4-methylbenzylamino)-4-oxo-1,4-dihydro-1,8-naphthyridine-3-carboxylic acid] | > 100

SMILES | EC50 [nM]
COc1nc2c(cc1NCc1ccccc1)c(=O)c(C(=O)O)cn2[C@H](CO)C(C)C [Example 20O, (S)-6-(benzylamino)-1-(1-hydroxy-3-methylbutan-2-yl)-7-methoxy-4-oxo-1,4-dihydro-1,8-naphthyridine-3-carboxylic acid] | > 100
CC(C)(C)[C@@H](CO)n1cc(C(=O)O)c(=O)c2cc(Cc3cccc(Cl)c3F)c(OCCN3CCCC3)nc21 [Example 2O] | 10 to 100
COc1nc2c(cc1NCc1cccc(F)c1F)c(=O)c(C(=O)O)cn2[C@H](CO)C(C)C [Example 20BB, (S)-6-(2,3-difluorobenzylamino)-1-(1-hydroxy-3-methylbutan-2-yl)-7-methoxy-4-oxo-1,4-dihydro-1,8-naphthyridine-3-carboxylic acid] | > 100
Cc1cc2c(cc1NCc1c(F)cc(F)cc1F)c(=O)c(C(=O)O)cn2[C@H](CO)C(C)(C)C [Example 25D, (S)-1-(1-hydroxy-3,3-dimethylbutan-2-yl)-7-methyl-4-oxo-6-(2,4,6-trifluorobenzylamino)-1,4-dihydroquinoline-3-carboxylic acid] | < 10
CCCn1cc(C(=O)O)c(=O)c2c(N)nc(SC)nc21 [Example 7B] | > 100
COc1nc2c(cc1NCc1ccc(F)cc1)c(=O)c(C(=O)O)cn2[C@H](CO)C(C)(C)C [Example 20MM, (S)-6-(4-fluorobenzylamino)-1-(1-hydroxy-3,3-dimethylbutan-2-yl)-7-methoxy-4-oxo-1,4-dihydro-1,8-naphthyridine-3-carboxylic acid] | > 100
CC(C)(C)[C@@H](CO)n1cc(C(=O)O)c(=O)c2cc(Cc3cccc(Cl)c3F)c(NCCO)nc21 [Example 2R] | < 10
COc1nc2c(cc1Nc1cccc(Cl)c1F)c(=O)c(C(=O)O)cn2[C@H](CO)C(C)C [Example 20OO, (S)-6-(3-chloro-2-fluorophenylamino)-1-(1-hydroxy-3-methylbutan-2-yl)-7-methoxy-4-oxo-1,4-dihydro-1,8-naphthyridine-3-carboxylic acid] | > 100
CC(C)(C)[C@@H](CO)n1cc(C(=O)O)c(=O)c2cc(Cc3cccc(Cl)c3F)c(NCCCN3CCOCC3)nc21 [Example 2DD] | < 10
CC(C)(C)[C@@H](CO)n1cc(C(=O)O)c(=O)c2cc(Cc3cccc(Cl)c3F)c(N3CCC(CO)CC3)nc21 [Example 2Y] | 10 to 100
COc1nc2c(cc1NCCc1cccc(Cl)c1)c(=O)c(C(=O)O)cn2[C@H](CO)C(C)C [Example 20G, (S)-6-(3-chlorophenethylamino)-1-(1-hydroxy-3-methylbutan-2-yl)-7-methoxy-4-oxo-1,4-dihydro-1,8-naphthyridine-3-carboxylic acid] | > 100
COc1nc2c(cc1Nc1ccc(F)cc1)c(=O)c(C(=O)O)cn2[C@H](CO)C(C)C [Example 20QQ, (S)-6-(4-fluorophenylamino)-1-(1-hydroxy-3-methylbutan-2-yl)-7-methoxy-4-oxo-1,4-dihydro-1,8-naphthyridine-3-carboxylic acid] | > 100
CC(C)(C)[C@@H](CO)n1cc(C(=O)O)c(=O)c2cc(Cc3cccc(Cl)c3F)c(CCCO)nc21 [Example 3C, 6-(3-Chloro-2-fluoro-benzyl)-1-((S)-1-hydroxymethyl-2,2-dimethyl-propyl)-7-(3-hydroxy-propyl)-4-oxo-1,4-dihydro-1,8-naphthyridine-3-carboxylic acid] | < 10
COc1nc2c(cc1N1CCc3ccc(F)cc3C1)c(=O)c(C(=O)O)cn2[C@H](CO)C(C)C [Example 17N] | > 100
COc1nc2c(cc1-c1cccc(Cl)c1F)c(=O)c(C(=O)O)cn2[C@H](CO)C(C)C [Example 17C] | > 100
COc1nc2c(cc1NCc1cc(F)c(F)cc1F)c(=O)c(C(=O)O)cn2[C@H](CO)C(C)C [Example 20II, (S)-1-(1-hydroxy-3-methylbutan-2-yl)-7-methoxy-4-oxo-6-(2,4,5-trifluorobenzylamino)-1,4-dihydro-1,8-naphthyridine-3-carboxylic acid] | > 100
CN(C)CCCOc1nc2c(cc1Cc1cccc(Cl)c1F)c(=O)c(C(=O)O)cn2[C@H](CO)C(C)(C)C [Example 2L] | 10 to 100
CC(C)(C)[C@@H](CO)n1cc(C(=O)O)c(=O)c2cc(Cc3cccc(Cl)c3F)c(N3CCC(O)CC3)nc21 [Example 2X] | 10 to 100
CC(C)(C)[C@@H](CO)n1cc(C(=O)O)c(=O)c2cc(NCc3c(F)cc(F)cc3F)c(N3CCOCC3)nc21 [Example 27E, (S)-1-(1-hydroxy-3,3-dimethylbutan-2-yl)-7-morpholino-4-oxo-6-(2,4,6-trifluorobenzylamino)-1,4-dihydro-1,8-naphthyridine-3-carboxylic acid] | 10 to 100
COc1cc2c(cc1NCc1ccc(F)cc1)c(=O)c(C(=O)O)cn2[C@H](CO)C(C)C [Example 21A, (S)-6-(4-Fluorobenzylamino)-1-(1-hydroxy-3-methylbutan-2-yl)-7-methoxy-4-oxo-1,4-dihydroquinoline-3-carboxylic acid] | < 10
CN(C)c1nc2c(cc1Cc1cccc(Cl)c1F)c(=O)c(C(=O)O)cn2[C@H](CO)C(C)(C)C [Example 2P] | 10 to 100
CC(C)(C)[C@@H](CO)n1cc(C(=O)O)c(=O)c2cc(Cc3cccc(Cl)c3F)c(N)nc21 [Example 3A, (S)-7-Amino-6-(3-chloro-2-fluorobenzyl)-1-(1-hydroxy-3,3-dimethylbutan-2-yl)-4-oxo-1,4-dihydro-1,8-naphthyridine-3-carboxylic acid] | < 10

— patent US20110166123A1, “NOVEL COMPOSITIONS AND METHODS OF USE” (priority 2008, published 2011)
